Six compounds from US10005776B2, “Compounds as NIK inhibitors” (Janssen Pharmaceutica NV, priority 2014, dated 2018) can be followed below.

Assay [1] has as its target Recombinant Human NF-kappaB-Inducing Kinase (NIK/MAP3K14) (Homo sapiens, UniProt Q99558). Briefly: Inhibition of auto-phosphorylation of recombinant human NIK/MAP3K14 (AlphaScreen). The assay is classed as biochemical. As to conditions: 25 microM ATP, 0.2 nM GST-tagged NIK/MAP3K14, 1 h at 25° C.; averaged over all measurements on all batches; read-out: Alpha-Screen IC50. On the procedure:
Inhibition of Auto-Phosphorylation of Recombinant Human NF-kappaB-Inducing Kinase (NIK/MAP3K14) Activity (AlphaScreen®)
NIK/MAP3K14 auto-phosphorylation activity was measured using the AlphaScreen® (αscreen) format (Perkin Elmer). All compounds tested were dissolved in dimethyl sulfoxide (DMSO) and further dilutions were made in assay buffer. Final DMSO concentration was 1% (v/v) in assays. Assay buffer was 50 mM Tris pH 7.5 containing 1 mM EGTA (ethylene glycol tetraacetic acid), 1 mM DTT (dithiothreitol), 0.1 mM Na3VO4, 5 mM MgCl2, 0.01% Tween® 20. Assays were carried out in 384 well Alphaplates (Perkin Elmer). Incubations consisted of compound, 25 microM Adenosine-5′-triphosphate (ATP), and 0.2 nM NIK/MAP3K14. Incubations were initiated by addition of GST-tagged NIK/MAP3K14 enzyme, carried out for 1 h at 25° C. and terminated by addition of stop buffer containing anti-phospho-IKK Ser176/180 antibody. Protein A Acceptor and Glutathione-Donor beads were added before reading using an EnVision® Multilabel Plate Reader (Perkin Elmer). Signal obtained in the wells containing blank samples was subtracted from all other wells and IC50's were determined by fitting a sigmoidal curve to % inhibition of control versus Log10 compound concentration.

The next assay relates to LP-1 cells. Nature of the assay: Antiproliferative activity on LP-1 cells (CellTiter-Glo). It counts as cell-based, human. The settings on record: Homo sapiens, LP-1, 72 h, 72 hr treatment, averaged values. The protocol: (§1) Determination of Antiproliferative Activity on LP-1, L-363 and JJN-3 Cells
(§2) All compounds tested were dissolved in DMSO and further dilutions were made in culture medium. Final DMSO concentration was 0.3% (v/v) in cell proliferation assays. Viability was assessed using CellTiter-Glo cell viability assay kit (Promega). The human LP-1, L-363 and JJN-3 cells (DSMZ) were cultured in RPMI 1640 medium supplemented with 2 mM L-glutamine, and 10% fetal calf serum (PAA). Cells were routinely kept as suspension cells at 37° C. in a humidified 5% CO2 atmosphere. Cells were passaged at a seeding density of 0.2×10^6/ml twice a week. Cells were seeded in black tissue culture treated 96-well plates (Perkin Elmer). Densities used for plating ranged from 2,000 to 6,000 cells per well in a total volume of 75 μl medium. After twenty four hours, drugs and/or solvents were added (25 μl) to a final volume of 100 μl. Following 72 hr of treatment plates were removed from the incubator and allowed to equilibrate to room temperature for approx 10 min. 100 μl CellTiter-Glo reagent was added to each well that was then covered (Perkin Elmer Topseal) and shaken on plate shaker for 10 min. Luminescence was measured on a HTS Topcount (Perkin Elmer). Within an experiment, the results for each treatment were the mean of 2 replicate wells. For initial screening purposes, compounds were tested using a 9 point dilution curve (serial 1:3 dilutions). For each experiment, controls (containing no drug) and a blank incubation (containing cells read at the time of compound addition) were run in parallel. The blank value was subtracted from all control and sample values. For each sample, the mean value for cell growth (in relative light units) was expressed as a percentage of the mean value for cell growth of the control.

A further assay deals with L-363 cells. Briefly: Antiproliferative activity on L-363 cells (CellTiter-Glo). It counts as cell-based, human. As to conditions: Homo sapiens, L-363, 72 h, 72 hr treatment, averaged values. The protocol: as §1, §2
The next assay concerns JJN-3 cells. Nature of the assay: Antiproliferative activity on JJN-3 cells (CellTiter-Glo). It counts as cell-based, human. As to conditions: Homo sapiens, JJN-3, 72 h, 72 hr treatment, averaged values. The protocol: as §1, §2

Chain of Recombinant Human NF-kappaB-Inducing Kinase (NIK/MAP3K14) (Q99558 whole entry): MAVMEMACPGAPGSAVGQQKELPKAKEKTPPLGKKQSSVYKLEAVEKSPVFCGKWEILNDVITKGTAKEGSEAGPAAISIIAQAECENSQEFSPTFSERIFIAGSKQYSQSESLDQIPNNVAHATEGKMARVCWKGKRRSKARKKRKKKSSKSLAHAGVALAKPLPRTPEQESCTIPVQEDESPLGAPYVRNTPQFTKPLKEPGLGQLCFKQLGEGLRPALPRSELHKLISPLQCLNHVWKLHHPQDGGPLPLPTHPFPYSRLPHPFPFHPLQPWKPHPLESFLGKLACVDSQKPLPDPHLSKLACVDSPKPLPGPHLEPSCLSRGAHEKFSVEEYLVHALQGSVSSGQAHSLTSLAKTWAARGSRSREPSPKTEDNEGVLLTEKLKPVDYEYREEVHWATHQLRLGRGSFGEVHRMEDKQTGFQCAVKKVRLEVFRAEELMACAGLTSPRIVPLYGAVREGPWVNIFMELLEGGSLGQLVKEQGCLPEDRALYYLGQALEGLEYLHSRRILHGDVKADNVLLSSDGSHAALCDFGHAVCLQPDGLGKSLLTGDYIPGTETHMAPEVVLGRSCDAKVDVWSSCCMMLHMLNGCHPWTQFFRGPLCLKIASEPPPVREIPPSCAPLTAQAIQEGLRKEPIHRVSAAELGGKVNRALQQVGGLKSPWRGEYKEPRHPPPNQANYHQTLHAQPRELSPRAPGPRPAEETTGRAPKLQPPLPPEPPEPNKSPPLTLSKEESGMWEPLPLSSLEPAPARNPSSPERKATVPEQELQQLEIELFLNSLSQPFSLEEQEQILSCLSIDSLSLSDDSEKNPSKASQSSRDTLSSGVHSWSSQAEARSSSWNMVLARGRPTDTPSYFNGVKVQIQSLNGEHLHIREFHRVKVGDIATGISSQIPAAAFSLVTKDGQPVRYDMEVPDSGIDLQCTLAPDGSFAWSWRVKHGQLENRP

With `Cc1cc(C(C)(O)C#Cc2cc3c(-c4nc(N)ncc4F)c[nH]c3cn2)no1` (stereo not drawn) [Compound 18], the IC50 in assay [1] is 10 nM. The EC50 with LP-1 cells amounted to 5030 nM; in the assay with L-363 cells, 1090 nM; in the assay with JJN-3 cells, 1190 nM.
For `CC(O)(C#Cc1cc2c(-c3nc(N)ncc3F)c[nH]c2cn1)c1nccs1` (stereo not drawn) [Compound 19], in that order: 3 nM, 7620 nM, 1270 nM and 1010 nM.
For `Nc1ncc(F)c(-c2c[nH]c3cnc(C#CC4(O)CCCC4)cc23)n1` [Compound 20], in that order: 2 nM, 1120 nM, 126 nM and 152 nM.
For `Nc1ncc(F)c(-c2cn(C3CN(C4CC4)C3)c3cnc(C#CC4(O)CCCC4)cc23)n1` [Compound 21], the half-maximal inhibitory concentration (IC50) in assay [1] worked out at 95 nM. Moreover, the half-maximal effective concentration (EC50) in the assay on LP-1 cells was 1000 nM; with L-363 cells, 408 nM; with JJN-3 cells, 464 nM.
`Nc1ncc(F)c(-c2c[nH]c3c(C4CC4)nc(C#CC4(O)CCCC4)cc23)n1` [Compound 22]: the IC50 in assay [1] was determined as 37 nM. Also, the results for the EC50 with LP-1 cells, with L-363 cells and in the assay on JJN-3 cells were 110 nM, 24 nM and 37 nM, respectively.
Regarding `Cc1cc(C(C)(O)C#Cc2cc3c(-c4nc(N)ncc4F)c[nH]c3c(C3CC3)n2)no1` (stereo not drawn) [Compound 23], the IC50 in assay [1] stood at 67 nM. In addition, the results for the concentration for a half-maximal effect (EC50) with LP-1 cells, in the assay with L-363 cells and in the assay with JJN-3 cells were 1280 nM, 368 nM and 442 nM, respectively.
